Data: ChEMBL document CHEMBL1135555 (Bioorg Med Chem Lett, 2002)

Columns and labels:
[1] = Inhibition of Phosphodiesterase 3 from rat diaphragm
[2] = target: cGMP-specific 3',5'-cyclic phosphodiesterase (Rattus norvegicus, UniProt O54735); experiment: Inhibition of Phosphodiesterase 5 from rat diaphragm

Row | IC50 [1] [nM] | IC50 [2] [nM] | Ki [2] [nM] | Compound
1 | 740 |  |  | Cc1[nH]c(=O)c(C#N)cc1-c1ccncc1 [MILRINONE]
2 | 410 | 13 | 5 | COc1cc(O)c(CC=C(C)C)c2oc(-c3ccc(O)cc3)c(O)c(=O)c12 [SOPHOFLAVESCENOL]
3 | 13500 |  |  | C=C(C)C(CCC(C)(C)O)Cc1c(O)cc(OC)c2c1O[C@H](c1ccc(O)cc1O)[C@@H](O)C2=O (stereo partly specified)
4 | 12800 | 10600 |  | C=C(C)C(CCC(C)(C)O)Cc1c(O)cc(OC)c2c1O[C@H](c1ccc(O)cc1O)[C@H](O)C2=O (stereo partly specified)
5 | 1250 | 640 |  | C=C(C)[C@H](CC=C(C)C)Cc1c(O)cc(OC)c(C(=O)/C=C/c2ccc(O)cc2O)c1O [KURAIDIN]
6 | 2950 | 6100 |  | C=C(C)[C@H](CCC(C)(C)O)Cc1c(O)cc(OC)c2c1O[C@H](c1ccc(O)cc1O)CC2=O [KURARINOL]
